The data set is classed as physicochemical. Particulars: for melatonin available in the solution / solubilized: 7 min, 0.2 mg/mL. On the procedure: The water solubility of non-compacted melatonin (starting material used for compaction in Example 1) and the solubility of the compacted melatonin prepared in Example 1 were compared.
Three samples of 10 mg each of non-compacted melatonin and three samples of 10 mg each of compacted melatonin were introduced in separate beakers and tap water at 22 °C was added to each beaker to a volume of 10, 25 or 50 ml (assays A, B and C, respectively). Each tested mixture was sonicated for 5 minutes and subsequently subjected to magnetic stirring at 200 rpm for 2 more minutes.

For the compound `COc1ccc2[nH]cc(CCNC(C)=O)c2c1` [Compacted-melatonin, N-[2-(5-methoxy-1H-indol-3-yl)ethyl)acetamide], the “Solubility test, assay A (10 mg / 10 ml)” value is listed as “(partially dissolved)”; the “Solubility test, assay B (10 mg / 25 ml)” value is “(partially dissolved)”; the “melatonin available in the solution / solubilized” value is listed as 100%. For the same compound, for the setting “ocular inspection, in each of assays A, B and C (10 mg in 10, 25 or 50 ml water)”, the “dissolution rate compared with non-compacted melatonin” value was “higher dissolution rate”.

Regarding `COc1ccc2[nH]cc(CCNC(C)=O)c2c1` [Non-compacted melatonin, N-[2-(5-methoxy-1H-indol-3-yl)ethyl)acetamide], the “Solubility test, assay A (10 mg / 10 ml)” value is “(partially dissolved)”; the “Solubility test, assay B (10 mg / 25 ml)” value was “(partially dissolved)”; the “melatonin available in the solution / solubilized” value is 79%. The “melatonin remained as solid, not dissolved” value (HPLC analysis, assay C, 10 mg in 50 ml tap water at 22 °C) came to 21%.

(Values after patent EP3705117A1, “MELATONIN HAVING IMPROVED WATER SOLUBILITY, ITS PREPARATION AND USES THEREOF” (Tradichem Industrial Services, S.L., priority 2019, dated 2020).)
